Results reported in patent publication US10519147B2 (Merck Sharp & Dohme Corp., priority 2015, dated 2019).

Tests used:
[1] = target: T1, human Nav1.7 (Homo sapiens, UniProt Q15858); assay: IonWorks Quattro automated patch-clamp, inactivated state block of Nav1.7; type: cell-based; conditions: channels stably expressed in HEK 293 cells; double-pulse protocol, inactivated state block; read-out: potency for the Nav 1.7 sodium ion channel (IC50, as measured by IonWorks)
T1 construct: expressed in transfected cells; host or cells: HEK 293
T1 sequence (Q15858 whole entry): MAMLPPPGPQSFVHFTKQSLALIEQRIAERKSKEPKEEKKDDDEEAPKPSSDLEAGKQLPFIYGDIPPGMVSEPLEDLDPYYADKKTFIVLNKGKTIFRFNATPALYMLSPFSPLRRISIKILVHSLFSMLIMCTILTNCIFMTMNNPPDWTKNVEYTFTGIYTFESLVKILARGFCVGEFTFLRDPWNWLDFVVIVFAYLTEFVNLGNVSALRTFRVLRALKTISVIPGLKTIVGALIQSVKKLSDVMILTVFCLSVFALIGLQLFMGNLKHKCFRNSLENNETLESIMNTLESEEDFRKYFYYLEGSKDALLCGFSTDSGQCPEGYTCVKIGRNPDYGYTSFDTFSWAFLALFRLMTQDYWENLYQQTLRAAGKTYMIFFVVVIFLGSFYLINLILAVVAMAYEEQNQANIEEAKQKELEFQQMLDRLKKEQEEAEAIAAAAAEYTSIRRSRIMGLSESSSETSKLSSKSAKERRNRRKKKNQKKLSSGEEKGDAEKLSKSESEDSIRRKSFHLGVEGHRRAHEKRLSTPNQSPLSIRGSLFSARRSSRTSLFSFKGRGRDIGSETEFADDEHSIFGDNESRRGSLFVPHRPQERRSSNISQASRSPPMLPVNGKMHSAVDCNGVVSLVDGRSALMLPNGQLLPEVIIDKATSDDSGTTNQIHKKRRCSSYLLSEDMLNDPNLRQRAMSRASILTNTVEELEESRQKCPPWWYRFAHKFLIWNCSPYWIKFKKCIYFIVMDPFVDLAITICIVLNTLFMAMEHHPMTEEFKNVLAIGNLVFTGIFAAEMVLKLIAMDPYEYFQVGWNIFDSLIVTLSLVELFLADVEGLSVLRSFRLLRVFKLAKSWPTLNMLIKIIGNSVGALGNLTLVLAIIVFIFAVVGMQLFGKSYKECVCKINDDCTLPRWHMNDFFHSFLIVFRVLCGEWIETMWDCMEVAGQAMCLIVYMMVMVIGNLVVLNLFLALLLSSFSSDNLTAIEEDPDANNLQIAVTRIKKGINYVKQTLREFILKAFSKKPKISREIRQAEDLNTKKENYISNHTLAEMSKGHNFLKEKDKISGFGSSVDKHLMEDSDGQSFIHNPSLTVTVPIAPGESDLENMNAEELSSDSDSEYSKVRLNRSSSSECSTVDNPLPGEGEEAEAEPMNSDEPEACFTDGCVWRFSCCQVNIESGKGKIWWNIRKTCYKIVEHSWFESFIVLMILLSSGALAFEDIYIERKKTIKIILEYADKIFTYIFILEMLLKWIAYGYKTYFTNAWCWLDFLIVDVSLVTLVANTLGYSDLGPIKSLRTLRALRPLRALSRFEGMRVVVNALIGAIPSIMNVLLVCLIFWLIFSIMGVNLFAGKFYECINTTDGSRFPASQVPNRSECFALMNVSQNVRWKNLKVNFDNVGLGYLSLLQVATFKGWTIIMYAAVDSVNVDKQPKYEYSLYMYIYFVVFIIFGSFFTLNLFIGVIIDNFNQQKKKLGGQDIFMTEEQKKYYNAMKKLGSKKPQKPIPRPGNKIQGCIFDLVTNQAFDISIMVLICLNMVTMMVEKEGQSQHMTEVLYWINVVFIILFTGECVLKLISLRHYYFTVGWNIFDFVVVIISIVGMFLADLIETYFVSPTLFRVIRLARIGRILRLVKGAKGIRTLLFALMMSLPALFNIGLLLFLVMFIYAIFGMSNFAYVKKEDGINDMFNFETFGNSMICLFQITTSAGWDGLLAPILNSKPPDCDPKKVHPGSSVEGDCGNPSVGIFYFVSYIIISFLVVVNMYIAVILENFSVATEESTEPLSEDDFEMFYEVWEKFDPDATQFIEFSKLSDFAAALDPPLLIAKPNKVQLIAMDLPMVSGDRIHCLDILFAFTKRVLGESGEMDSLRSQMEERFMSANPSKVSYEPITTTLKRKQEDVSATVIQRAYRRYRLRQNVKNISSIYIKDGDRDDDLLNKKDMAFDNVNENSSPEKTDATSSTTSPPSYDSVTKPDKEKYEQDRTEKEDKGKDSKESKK
Description: (§1) Compounds were tested on human Nav1.7 and Nav1.5 channels stably expressed in HEK 293 cells. […] Cells were sealed on a planar substrate using the Population Patch […] (PPC) technology. Electrical access was obtained using both nystatin and amphotericin. A double-pulse protocol was used for the determination of IC50 values for inactivated state block. Nav1.7 and Nav1.5 expressing cells were voltage clamped at −100 mV and −110 mV, respectively. A depolarizing prepulse to −10 mV (Nav1.7) or −30 mV (Nav1.5) for 1000 ms followed by a 10 ms repolarization to −100 mV (Nav1.7) or −110 mV (Nav1.5) was given to generate fractional channel inactivation of 50%, followed by a 10 ms test pulse to −10 mV (Nav1.7) or −30 mV (Nav1.5) to measure peak current in control conditions and after compound addition. The following recording solutions were used (mM). External: 150 NaCl, 2 CaCl2, 5 KCl, 1 Mg Cl2, 10 HEPES, 12 Dextrose; internal: 120 CsF, 30 CsCl, 10 EGTA, 5 HEPES, 5 NaF, 2 MgCl2.
(§2) For all electrophysiology experiments, offline analysis was used to determine percent inhibition as a function of drug concentration. IC50 values were determined by fitting to the Hill equation.

[2] = target: T2, human Nav1.5 (Homo sapiens, UniProt Q14524); assay: IonWorks Quattro automated patch-clamp, Nav1.5 (selectivity against Nav1.7); type: cell-based; conditions: IonWorks measurement, HEK 293 cells, inactivated state block
T2 construct: expressed in transfected cells; host or cells: HEK 293
T2 sequence (Q14524 whole entry): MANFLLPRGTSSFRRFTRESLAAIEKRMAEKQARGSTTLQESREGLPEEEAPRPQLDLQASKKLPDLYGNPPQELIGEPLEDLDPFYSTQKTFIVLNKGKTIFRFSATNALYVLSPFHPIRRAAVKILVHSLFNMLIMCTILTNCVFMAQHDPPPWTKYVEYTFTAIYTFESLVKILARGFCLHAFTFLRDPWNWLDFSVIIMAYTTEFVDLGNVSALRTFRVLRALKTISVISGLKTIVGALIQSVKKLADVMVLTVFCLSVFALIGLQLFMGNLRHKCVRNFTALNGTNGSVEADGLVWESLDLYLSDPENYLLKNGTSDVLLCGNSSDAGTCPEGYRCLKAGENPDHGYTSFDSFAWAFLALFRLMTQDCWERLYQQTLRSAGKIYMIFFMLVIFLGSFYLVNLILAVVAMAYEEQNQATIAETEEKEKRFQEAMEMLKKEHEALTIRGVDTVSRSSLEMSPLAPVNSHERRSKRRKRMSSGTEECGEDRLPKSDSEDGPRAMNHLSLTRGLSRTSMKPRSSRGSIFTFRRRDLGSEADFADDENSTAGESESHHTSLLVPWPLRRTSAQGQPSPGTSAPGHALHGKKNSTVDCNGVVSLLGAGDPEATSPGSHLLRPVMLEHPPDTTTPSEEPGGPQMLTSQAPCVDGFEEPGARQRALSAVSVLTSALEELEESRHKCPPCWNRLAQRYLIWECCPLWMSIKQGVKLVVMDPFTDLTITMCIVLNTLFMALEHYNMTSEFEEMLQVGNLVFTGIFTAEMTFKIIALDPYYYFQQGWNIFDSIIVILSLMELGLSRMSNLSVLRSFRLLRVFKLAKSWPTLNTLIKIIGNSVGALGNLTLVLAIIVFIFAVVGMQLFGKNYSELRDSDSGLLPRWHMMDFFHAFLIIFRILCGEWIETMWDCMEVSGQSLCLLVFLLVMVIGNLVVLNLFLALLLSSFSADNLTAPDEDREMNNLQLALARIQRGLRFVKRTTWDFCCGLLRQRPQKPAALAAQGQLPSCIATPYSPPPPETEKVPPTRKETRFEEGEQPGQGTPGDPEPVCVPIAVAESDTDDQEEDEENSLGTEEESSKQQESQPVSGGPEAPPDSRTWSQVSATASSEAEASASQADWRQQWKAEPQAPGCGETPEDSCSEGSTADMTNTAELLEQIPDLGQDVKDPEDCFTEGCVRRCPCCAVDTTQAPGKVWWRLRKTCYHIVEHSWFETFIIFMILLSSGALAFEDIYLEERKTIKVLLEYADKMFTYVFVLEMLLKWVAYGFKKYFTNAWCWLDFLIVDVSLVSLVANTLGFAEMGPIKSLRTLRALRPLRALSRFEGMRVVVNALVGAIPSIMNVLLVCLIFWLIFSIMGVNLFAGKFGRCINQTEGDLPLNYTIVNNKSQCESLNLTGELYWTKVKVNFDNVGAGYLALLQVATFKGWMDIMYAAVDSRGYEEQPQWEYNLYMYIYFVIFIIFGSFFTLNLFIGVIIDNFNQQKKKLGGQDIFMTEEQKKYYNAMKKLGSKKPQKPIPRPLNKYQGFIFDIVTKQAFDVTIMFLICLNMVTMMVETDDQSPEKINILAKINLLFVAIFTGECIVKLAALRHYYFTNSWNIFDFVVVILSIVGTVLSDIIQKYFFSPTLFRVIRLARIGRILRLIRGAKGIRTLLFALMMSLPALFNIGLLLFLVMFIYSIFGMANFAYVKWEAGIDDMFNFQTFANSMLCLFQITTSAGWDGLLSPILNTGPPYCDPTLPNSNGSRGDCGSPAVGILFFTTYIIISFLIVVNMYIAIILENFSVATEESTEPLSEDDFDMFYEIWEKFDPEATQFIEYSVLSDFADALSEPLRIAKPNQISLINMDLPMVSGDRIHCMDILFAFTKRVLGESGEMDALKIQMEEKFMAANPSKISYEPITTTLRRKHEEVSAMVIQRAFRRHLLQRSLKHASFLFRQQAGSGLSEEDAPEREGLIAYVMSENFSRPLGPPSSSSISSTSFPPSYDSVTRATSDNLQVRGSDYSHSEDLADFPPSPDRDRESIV
Description: as §1, §2

| SMILES | IC50 [1] | ratio of Nav 1.7 potency:Nav 1.5 potency [2] | ratio of Nav 1.7 potency:Nav 1.5 potency ([2]; listed as Ex1-04) |
| --- | --- | --- | --- |
| O=S(=O)(Nc1nccs1)c1cc(Cl)c(NCCCCNC[C@@H]2CCCCN2)cc1F [Ex 1-04, 5-chloro-2-fluoro-4-[(4-{[(2S)-piperidin-2-ylmethyl]amino}butyl)amino]-N-1,3-thiazol-2-yl-benzenesulfonamide] | 9.6 nM | > 3440 | 3440 |
| N[C@H]1CCCC[C@@H]1NCCCCNc1cc(F)c(S(=O)(=O)Nc2nccs2)cc1Cl [Ex 1-07, 4-[(4-{[(1S,2S)-2-amino-cyclohexyl]amino}butyl)-amino]-5-chloro-2-fluoro-N-1,3-thiazol-2-yl-benzenesulfonamide] | 18 nM | > 1800 | – |
| C[C@H](NCCCCNc1cc(F)c(S(=O)(=O)Nc2nccs2)cc1Cl)[C@@H]1CCCN1 [Ex 1-27, 5-chloro-2-fluoro-4-{[4-({(1S)-1-[(2S)-pyrrolidin-2-yl]ethyl}amino)butyl]-amino}-N-1,3-thiazol-2-yl-benzenesulfonamide] | 31 nM | > 1070 | – |
| N[C@@H]1CCCC[C@H]1NCCCCNc1cc(F)c(S(=O)(=O)Nc2nccs2)cc1Cl [Ex 1-28, 4-[(4-{[(1R,2R)-2-aminocyclohexyl]amino}butyl)amino]-5-chloro-2-fluoro-N-1,3-thiazol-2-ylbenzenesulfonamide] | 8.4 nM | > 3930 | – |
| N[C@@H]1CCC[C@@H]1NCCCCNc1cc(F)c(S(=O)(=O)Nc2nccs2)cc1Cl [Ex 1-29, 4-[(4-{[(1S,2R)-2-aminocyclopentyl]amino}butyl)amino]-5-chloro-2-fluoro-N-1,3-thiazol-2-ylbenzenesulfonamide] | 52 nM | > 635 | – |
| O=S(=O)(Nc1ncns1)c1cc(F)c(NCCCCNC[C@@H]2CCCN2)cc1F [Ex 7-7, 2,5-difluoro-4-[(4-{[(2S)-pyrrolidin-2-ylmethyl]amino}butyl)amino]-N-1,2,4-thiadiazol-5-ylbenzenesulfonamide] | 80 nM | > 410 | – |
| N[C@@H]1CCC[C@H]1NCCCCNc1cc(F)c(S(=O)(=O)Nc2ncns2)cc1Cl [Ex 12-07, 4-[(4-{[(1R,2R)-2-aminocyclo-pentyl]amino}butyl)amino]-5-chloro-2-fluoro-N-1,2,4-thiadiazol-5-yl-benzene-sulfonamide] | 6 nM | > 5500 | – |

Continued, in another order:

| IC50 [1] | SMILES | ratio of Nav 1.7 potency:Nav 1.5 potency [2] | ratio of Nav 1.7 potency:Nav 1.5 potency ([2]; listed as Ex1-04) |
| --- | --- | --- | --- |
| 3.3 nM | NC1CCC1NCCCCNc1cc(F)c(S(=O)(=O)Nc2ncns2)cc1Cl (single isomer, unassigned) [Ex 16-82, 4-[4-[[(1S,2S) or (1R,2R)-2-aminocyclobutyl]amino]butylamino]-5-chloro-2-fluoro-N-(1,2,4-thiadiazol-5-yl) benzenesulfonamide] | > 10000 | – |
| 4.7 nM | NC1CCC1NCCCCNc1cc(F)c(S(=O)(=O)Nc2ncns2)cc1Cl (single isomer, unassigned) [Ex 16-83, 4-[4-[[(1R,2R) or (1S,2S)-2-aminocyclobutyl]amino]butylamino]-5-chloro-2-fluoro-N-(1,2,4-thiadiazol-5-yl)benzenesulfonamide] | > 7020 | – |
| 5 nM | N[C@@H]1CCC[C@H]1NCCCCNc1cc(F)c(S(=O)(=O)Nc2ncc(F)s2)cc1Cl [Ex 16-05, 4-[(4-{[(1R,2R)-2-aminocyclopentyl]-amino}-butyl)-amino]-5-chloro-2-fluoro-N-(5-fluoro-1,3-thiazol-2-yl)-benzene-sulfonamide] | 3400 | – |
| 8.1 nM | C[C@@H](N)CNCCCCNc1cc(F)c(S(=O)(=O)Nc2ncc(F)s2)cc1Cl [Ex 16-06, 4-[(4-{[(1R,2R)-2-aminopropyl]amino}-butyl)amino]-5-chloro-2-fluoro-N-(5-fluoro-1,3-thiazol-2-yl)benzene-sulfonamide] | > 4070 | – |
| 9.2 nM | N[C@@H]1CCC[C@H]1NCCCCNc1cc(F)c(S(=O)(=O)Nc2nccs2)cc1Cl [Ex 16-09] | > 3590 | – |
| 13 nM | C[C@H](N)CNCCCCNc1cc(F)c(S(=O)(=O)Nc2nccs2)cc1Cl [Ex 16-12, 4-[(4-{[(2S)-2-aminopropyl]-amino}butyl)amino]-5-chloro-2-fluoro-N-1,3-thiazol-2-yl-benzene-sulfonamide] | > 2540 | – |
| 12 nM | O=S(=O)(Nc1ncc(F)s1)c1cc(Cl)c(NCCCCNC[C@H]2CCCN2)cc1F [Ex 16-13, 5-chloro-2-fluoro-N-(5-fluoro-1,3-thiazol-2-yl)-4-[(4-{[(2R)-pyrrolidin-2-yl-methyl]amino}-butyl)-amino] benzenesulfonamide] | 2538 | – |
| 39 nM | O=S(=O)(Nc1nccs1)c1cc(Cl)c(NCCCCNCC[C@H]2CCCN2)cc1F [Ex 16-14, 5-chloro-2-fluoro-4-{[4-({2-[(2R)-pyrrolidin-2-yl]ethyl}-amino)-butyl]-amino}-N-1,3-thiazol-2-yl-benzenesulfonamide] | > 846 | – |
| 8.7 nM | O=S(=O)(Nc1ncc(F)s1)c1cc(Cl)c(NCCCCNC[C@H]2CCCCN2)cc1F [Ex 16-16, 5-chloro-2-fluoro-N-(5-fluoro-1,3-thiazol-2-yl)-4-[(4-{[(2R)-piperidin-2-yl-methyl]amino}butyl)-amino] benzenesulfonamide] | > 3800 | – |
| 12 nM | C[C@H](CN)NCCCCNc1cc(F)c(S(=O)(=O)Nc2ncns2)cc1Br [Ex 16-78, 4-[(4-{[(1R)-2-amino-1-methylethyl]amino}butyl)amino]-5-bromo-2-fluoro-N-1,2,4-thiadiazol-5-ylbenzenesulfonamide] | – | – |
| 12 nM | NC1(CNCCCCNc2cc(F)c(S(=O)(=O)Nc3ncns3)cc2Br)CC1 [Ex 16-89, 4-[4-[(1-aminocyclopropyl)methylamino]butylamino]-5-bromo-2-fluoro-N-(1,2,4-thiadiazol-5-yl)benzenesulfonamide] | – | – |
| 5.1 nM | CNCCNCCCCNc1cc(F)c(S(=O)(=O)Nc2ncns2)cc1Br [Ex 16-90, 5-bromo-2-fluoro-4-[4-[2-(methylamino)ethylamino]butylamino]-N-(1,2,4-thiadiazol-5-yl)benzenesulfonamide] | – | – |
| 14 nM | CNCCCNCCCCNc1cc(F)c(S(=O)(=O)Nc2ncns2)cc1Br [Ex 16-91, 5-bromo-2-fluoro-4-[4-[3-(methylamino)propylamino]butylamino]-N-(1,2,4-thiadiazol-5-yl)benzenesulfonamide] | – | – |
| 15 nM | CC1(NCCCCNc2cc(F)c(S(=O)(=O)Nc3ncns3)cc2Br)CCNC1 (stereo not shown) [Ex 16-96, 5-bromo-2-fluoro-4-[4-[(3-methylpyrrolidin-3-yl)amino]butylamino]-N-(1,2,4-thiadiazol-5-yl)benzenesulfonamide] | – | – |
| 18 nM | NCCCNCCCCNc1cc(F)c(S(=O)(=O)Nc2ncns2)cc1Br [Ex 16-97, 4-[4-(3-aminopropylamino)butylamino]-5-bromo-2-fluoro-N-(1,2,4-thiadiazol-5-yl)benzenesulfonamide] | – | – |
| 15 nM | O=S(=O)(Nc1ncns1)c1cc(Br)c(NCCCCN[C@H]2CCNC2)cc1F [Ex 16-100, (S)-5-bromo-2-fluoro-4-((4-(pyrrolidin-3-ylamino)butyl)amino)-N-(1,2,4-thiadiazol-5-yl)benzenesulfonamide] | – | – |
